The target in assay [1] is T1, affinity-tagged PPARγ expressed in zebrafish (Homo sapiens, UniProt P37231).
T1 construct: pLT PPARα (aa 178-468) and pLT PPAR γ (aa 188-477) lines; expressed in transfected cells; host or cells: transgenic zebrafish embryos (heat-induced ligand-trap line)
T1 sequence (P37231 188-477 isoform P37231-2): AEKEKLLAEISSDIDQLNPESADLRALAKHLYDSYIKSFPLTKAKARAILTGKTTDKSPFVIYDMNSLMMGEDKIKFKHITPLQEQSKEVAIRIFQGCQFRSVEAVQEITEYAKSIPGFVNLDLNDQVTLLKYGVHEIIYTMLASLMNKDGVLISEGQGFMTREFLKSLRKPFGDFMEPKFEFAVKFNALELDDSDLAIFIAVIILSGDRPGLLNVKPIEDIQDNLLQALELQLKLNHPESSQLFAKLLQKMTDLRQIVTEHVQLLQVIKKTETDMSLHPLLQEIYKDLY
Kind of assay: Affinity purification of PPARγ from LT fish and LC-MRM of bound drugs. The class given is binding. The settings on record: 1 μM rosiglitazone or 4 μM idebenone; purification in 1M NaCl.
Description: Following purification, bound small molecules were extracted using 2:1 chloroform/methanol and subjected to LC-MRM (liquid chromatogaphy—multiple reaction monitoring) mass spectrometry to identify co-purifying small molecules.
1 dpf zebrafish embryos were heat induced for 1 hr in pre-heated embryo water 37° C. (+/− drugs). […] Purification steps were performed at 4° C. Frozen embryos were homogenized in lysis buffer (50 mM Hepes ph7.5, 1M NaCl, 0.1% Triton X-100, 1 mM DTT, 1 mM EDTA, 1 ppm BHT, Complete protease inhibitor cocktail tablet (Roche, 1 tablet/50 ml buffer)) at a ratio of 4 ml lysis buffer/gram embryos. After 20 min incubation on ice, the lysate was centrifuged at 14000×g for 15 mins. […] The beads were then transferred to a 2 ml-gravity disposable column and washed 3 times with 6 column of Last Wash Buffer (800 mM ammonium acetate pH7.5, 1 ppm BHT). The beads were then transferred to a glass vial and the samples prepared for mass spectrometry.
The chloroform phase was collected and dried under a stream of nitrogen gas. The dried residue was reconstituted in 10% acetonitrile prior to LC-MRM. […]
The purified PPARγ or control purifications were then extracted with 2:1 chlorofonailmethanol, and the solvent phase analyzed by mass spectrometry.

Another assay deals with T2, PPARδ/β (Homo sapiens, UniProt Q03181).
T2 construct: expressed in transfected cells; host or cells: transgenic zebrafish embryos (ligand-trap line)
T2 sequence (Q03181 211-439 limits assumed): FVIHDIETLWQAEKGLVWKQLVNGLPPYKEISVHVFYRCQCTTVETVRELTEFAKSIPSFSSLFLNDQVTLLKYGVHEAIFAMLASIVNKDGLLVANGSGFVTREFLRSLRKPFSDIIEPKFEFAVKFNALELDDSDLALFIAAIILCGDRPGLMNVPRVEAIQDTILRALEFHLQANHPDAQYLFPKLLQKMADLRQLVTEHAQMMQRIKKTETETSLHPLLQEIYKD
Description: PPARδ/β ligand trap transgenic zebrafish line. Conditions: in vivo. How it is done: To test for specificity, idebenone and CoQ10 were also tested on PPARα, and PPARδ/β receptors in vivo and in vitro. […] The same relative responses were obtained with HEK 293 cells grown in culture and transfected with PPAR expression vectors and luciferase reporters (FIG. 5).

A further assay concerns the target T3, hPPARγ (Homo sapiens, UniProt P37231).
T3 sequence (P37231 188-477 isoform P37231-2): T1 sequence (P37231 188-477 isoform P37231-2)
Kind of assay: PPARγ ligand trap (LT) zebrafish GFP reporter screen/assay. The class given is in vivo. Set-up: pLT PPARα (aa 178-468) and pLT PPAR γ (aa 188-477) lines; expressed in transfected cells; host or cells: transgenic zebrafish embryos (heat-induced ligand-trap line). Conditions: for GFP reporter activation in LT-PPARγ embryos: transgenic embryos, 48 hpf images. How it is done: Digested DNA was adjusted with 0.1% phenol red. 4.6 nl of DNA solution was injected into the blastomeres of early one-cell stage embryos.
F0 fish were crossed with WT fish to identify germ-line transformed animals, as determined by agonist treatments and GFP expression. F1 progeny showing strong and consistent GFP responses were selected for F2 homozygote production. To avoid reporter GFP silencing of stable transgenic LT lines, homozygous fish showing strong and consistent GFP responses were selected for continued propagation of next generations.
PPARγ ligand trap zebrafish screens were performed under optimized conditions in 96-well format using the ImageXpress Velos Laser Scanning Cytometer. 1 or 2 dpf embryos were heat induced (28→37° C.) for 30 minutes, de-chorionated and then arrayed in 96-well plates (5 per well). Embryo water (0.075 g/L NaHCO3, 0.018 g/L Sea salt, 0.0084 g/L CaSO42H2O) was removed and 200 μl of fresh embryo water/well including dissolved small molecules or solvent was added.
Also included was the CoQ10 analog idebenone.

The subject of another assay is 3T3-L1 cells. Description: Murine 3T3-L1 adipocyte differentiation assay (Oil Red O). In kind it is cell-based. Conditions: with dexamethasone, isobutylmethylxanthine and insulin; Oil Red O staining. How it is done: The cell line was originally obtained from ATCC and 3T3-L1 cells were maintained in the fibroblasts stage in DMEM (Gibco: 11995-065), 10% FBS (Gibco: 26140-079) and Pen-Strep solution (Gibco: 15140-122). Cells were grown in 75 cm^2 flasks and sub-cultured just prior to confluence. Medium was removed and washed twice with PBS. For cell differentiation 2 day post-confluent monolayers were incubated for 2 days in DMEM containing: 10% fetal bovine serum (FBS), 100 μg/ml IBMX (from a 500× stock in 0.15 M KOH, prepared fresh), 390 ng/ml dexamethasone (from a 1000× stock in EtOH) and 5 μg/ml insulin (from a 1000× stock in 0.1 M HCl). After 2 days media was replaced with DMEM+ 10% FBS and 5 μg insulin only and cells were maintained for another 2 days. Media was then replaced by DMEM+ 10% FBS for 5-6 days until differentiation was complete. After differentiation media was removed and cells were washed twice with PBS and then fixed in 4% PFA. Lipids were stained with Oil O red.

The test system of assay [2] is diet-induced obese C57BL/6J male mice. Description: Diet-induced-obese (DIO) mouse study. The class given is in vivo. How it is done: Mouse-based biomedical research was performed by the Jackson Laboratory to test the efficacy of idebenone in a diet-induced-obese (DIO) mouse model and approved by the Institutional Animal Care and Use Committee (IACUC). To test the efficacy of idebenone in a db/db mouse model experiments were performed at the Univerity of Torotno and were approved by the Animal Care Committee at the University of Toronto.
DIO study: Forty four (44) diet-induced obese C57BL/6J male mice (started on high fat diet at the age of 6 weeks) were used at 16 wks of age. The mice were ear notched for identification using the standard mouse ID format. Mice were housed at a density of 3-4 per cage in polycarbonate cages, which were both individually and positively ventilated. Bed-o'Cobs® corn cob bedding was provided and was changed every two weeks or as needed.
The animal room was lighted entirely with artificial fluorescent lighting on controlled 12 hr light/dark cycle (6 a.m. to 6 p.m. light). The normal temperature and relative humidity ranges in the animal rooms were maintained at 22±4° C. and 50±15%, respectively. The animal room was set for 15 air exchanges per hour. Filtered tap water acidified to a pH of 2.5 to 3.1 was provided ad libitum. High fat diet (60 kcal %) was provided ad libitum. Following a 2 week acclimation, 32 mice were chosen based on desired body weight range. Remaining mice were euthanized. Mice were randomized by body weight into four treatment groups (n=8) by body weight and non-fasting blood glucose taken three days prior to the start of dosing. Body weights, non-fasting blood glucose, and insulin were measured before dosing. Dosing occurred for 5 days. Fasting blood glucose and insulin were measured at the end of dosing (mice were fasted overnight on day 5, and insulin and blood glucose was measured on day 6). Mice were euthanized by CO2 euthanasia. An aliquot of whole blood was processed to measure insulin.

The mark [3] stands for this setting: gavage twice daily for 5 days, 50 mpk idebenone, 30 mpk rosiglitazone.

We go through 1 compound from US9770421B2, “Uses for idebenone and related benzoquinones in metabolic disorders and other PPAR α/γ related diseases and conditions” (INDANIO BIOSCIENCE INC., priority 2013, dated 2017).

Molecules are shown by their SMILES. “Also recorded” adds a separate entry of the source.

The term EC50 denotes the concentration giving half of the maximal effect. Turning to `COC1=C(OC)C(=O)C(CCCCCCCCCCO)=C(C)C1=O` [Idebenone, 2-(10-hydroxydecyl)-5,6-dimethoxy-3-methyl-2,5-cyclohexadiene-1,4-dione], the “Co-purification with PPARγ from LT fish (LC-MRM)” value in assay [1] is given as “yielded idebenone in the affinity purification eluate; also recorded: co-purify with affinity-tagged PPARγ”. The “Response of PPARδ/β transgenic line” value on PPARδ/β was “no response”. Further, the “Hit activating the PPARγ ligand trap reporter fish line” value on hPPARγ (Enzo FDA approved drug library, screened at 1, 3 and 10 μM) was “hits”. Besides, the “Concentration yielding maximal activation in fish reporter system” value at hPPARγ (in vivo) is not below 4 µM. Moreover, on hPPARγ, the “GFP reporter activation in LT-PPARγ embryos” value was “more limited GFP expression in cells of the blood, epidermis and CNS”. Besides, the “GFP reporter activation in LT-PPARγ embryos” value on hPPARγ (listed as idebenone) is “weaker and less widespread than responses to rosiglitazone or pioglitazone; also recorded: dual agonists for PPARα and PPARγ”. The EC50 on hPPARγ (zebrafish ligand trap, read-out: EC50 in fish) was determined as 2000 nM. Also, the “Lipid accumulation / adipocyte differentiation” value in the assay on 3T3-L1 cells is “does not stimulate adipocyte differentiation and activity; also recorded: no accumulation of lipid”. The “Insulin resistance (HOMA-IR)” value in assay [2] (50 mpk idebenone twice daily for 5 days) is “clear improvement”. Also, in assay [2] (setting [3]), the Blood glucose levels entry is recorded as “trend towards lowered blood glucose levels; also recorded: lowers” and the Fasting insulin levels result was “reduction in fasting insulin levels; also recorded: lowers”.
